Consider three compounds from ChEMBL document CHEMBL3627608, “Crystal structures of human RIP2 kinase catalytic domain complexed with ATP-competitive inhibitors: Foundations for understanding inhibitor selectivity” (Bioorg Med Chem, 2015).

Assay [1] has as its target T1, Mitogen-activated protein kinase 12 (Homo sapiens) (UniProt P53778).
T1 sequence (whole entry): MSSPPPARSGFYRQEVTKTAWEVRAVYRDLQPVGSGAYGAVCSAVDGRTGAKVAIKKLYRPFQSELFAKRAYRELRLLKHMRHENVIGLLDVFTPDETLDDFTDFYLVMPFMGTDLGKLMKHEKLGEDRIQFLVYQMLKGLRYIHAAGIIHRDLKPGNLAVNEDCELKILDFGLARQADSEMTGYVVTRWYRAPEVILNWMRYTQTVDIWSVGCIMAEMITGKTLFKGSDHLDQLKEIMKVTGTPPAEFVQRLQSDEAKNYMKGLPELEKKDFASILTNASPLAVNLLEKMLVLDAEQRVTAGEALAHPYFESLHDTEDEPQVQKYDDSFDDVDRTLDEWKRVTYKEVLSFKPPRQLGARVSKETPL
Nature of the assay: Inhibition of P38gamma (unknown origin) at 10 uM after 120 mins P33 radiolabeled kinase activity assay.

Assay [2] deals with Homeodomain-interacting protein kinase 1 (Homo sapiens) (UniProt Q86Z02). Nature of the assay: Inhibition of HIPK1 (unknown origin) at 10 uM after 120 mins P33 radiolabeled kinase activity assay.
Homeodomain-interacting protein kinase 1 (Homo sapiens), sequence (Q86Z02 whole entry, looked up): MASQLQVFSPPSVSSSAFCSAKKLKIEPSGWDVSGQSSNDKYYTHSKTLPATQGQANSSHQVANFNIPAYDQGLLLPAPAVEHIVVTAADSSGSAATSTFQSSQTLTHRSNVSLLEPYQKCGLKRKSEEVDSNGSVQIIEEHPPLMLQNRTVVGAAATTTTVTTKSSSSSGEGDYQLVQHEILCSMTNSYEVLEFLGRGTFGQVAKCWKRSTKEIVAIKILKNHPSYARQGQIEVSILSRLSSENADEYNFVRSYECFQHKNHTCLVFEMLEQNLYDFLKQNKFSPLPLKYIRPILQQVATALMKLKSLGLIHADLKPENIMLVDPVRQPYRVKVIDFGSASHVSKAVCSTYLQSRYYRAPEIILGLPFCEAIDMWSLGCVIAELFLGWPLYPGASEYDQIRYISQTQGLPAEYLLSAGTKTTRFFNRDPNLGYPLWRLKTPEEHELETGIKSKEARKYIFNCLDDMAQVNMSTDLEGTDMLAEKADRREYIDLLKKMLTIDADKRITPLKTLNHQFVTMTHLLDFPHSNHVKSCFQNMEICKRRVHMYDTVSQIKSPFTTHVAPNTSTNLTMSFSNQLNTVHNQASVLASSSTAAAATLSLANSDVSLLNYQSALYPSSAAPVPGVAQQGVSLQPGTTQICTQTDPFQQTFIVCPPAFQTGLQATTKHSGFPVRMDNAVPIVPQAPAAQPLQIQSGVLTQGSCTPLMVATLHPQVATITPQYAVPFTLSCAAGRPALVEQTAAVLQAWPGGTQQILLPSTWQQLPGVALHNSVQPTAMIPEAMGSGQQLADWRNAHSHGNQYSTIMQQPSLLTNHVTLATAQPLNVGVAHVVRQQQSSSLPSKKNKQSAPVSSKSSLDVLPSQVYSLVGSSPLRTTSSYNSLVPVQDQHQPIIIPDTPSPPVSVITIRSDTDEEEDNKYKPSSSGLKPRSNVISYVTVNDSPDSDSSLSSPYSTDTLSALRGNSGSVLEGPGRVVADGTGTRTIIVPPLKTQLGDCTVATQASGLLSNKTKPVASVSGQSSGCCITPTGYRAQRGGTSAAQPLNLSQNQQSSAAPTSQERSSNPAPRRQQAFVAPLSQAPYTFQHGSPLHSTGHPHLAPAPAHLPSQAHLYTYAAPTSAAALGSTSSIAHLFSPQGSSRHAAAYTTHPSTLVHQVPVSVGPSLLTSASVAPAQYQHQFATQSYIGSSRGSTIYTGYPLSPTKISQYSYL
Assay [3] has as its target Serine/threonine-protein kinase pim-3 (Homo sapiens) (UniProt Q86V86). Nature of the assay: Inhibition of PIM3 (unknown origin) at 10 uM after 120 mins P33 radiolabeled kinase activity assay.
Assay [4] deals with Serine/threonine-protein kinase N1 (Homo sapiens) (UniProt Q16512). Nature of the assay: Inhibition of PKN1 (unknown origin) at 10 uM after 120 mins P33 radiolabeled kinase activity assay.
Serine/threonine-protein kinase N1 (Homo sapiens), sequence (Q16512 2-942 limits assumed): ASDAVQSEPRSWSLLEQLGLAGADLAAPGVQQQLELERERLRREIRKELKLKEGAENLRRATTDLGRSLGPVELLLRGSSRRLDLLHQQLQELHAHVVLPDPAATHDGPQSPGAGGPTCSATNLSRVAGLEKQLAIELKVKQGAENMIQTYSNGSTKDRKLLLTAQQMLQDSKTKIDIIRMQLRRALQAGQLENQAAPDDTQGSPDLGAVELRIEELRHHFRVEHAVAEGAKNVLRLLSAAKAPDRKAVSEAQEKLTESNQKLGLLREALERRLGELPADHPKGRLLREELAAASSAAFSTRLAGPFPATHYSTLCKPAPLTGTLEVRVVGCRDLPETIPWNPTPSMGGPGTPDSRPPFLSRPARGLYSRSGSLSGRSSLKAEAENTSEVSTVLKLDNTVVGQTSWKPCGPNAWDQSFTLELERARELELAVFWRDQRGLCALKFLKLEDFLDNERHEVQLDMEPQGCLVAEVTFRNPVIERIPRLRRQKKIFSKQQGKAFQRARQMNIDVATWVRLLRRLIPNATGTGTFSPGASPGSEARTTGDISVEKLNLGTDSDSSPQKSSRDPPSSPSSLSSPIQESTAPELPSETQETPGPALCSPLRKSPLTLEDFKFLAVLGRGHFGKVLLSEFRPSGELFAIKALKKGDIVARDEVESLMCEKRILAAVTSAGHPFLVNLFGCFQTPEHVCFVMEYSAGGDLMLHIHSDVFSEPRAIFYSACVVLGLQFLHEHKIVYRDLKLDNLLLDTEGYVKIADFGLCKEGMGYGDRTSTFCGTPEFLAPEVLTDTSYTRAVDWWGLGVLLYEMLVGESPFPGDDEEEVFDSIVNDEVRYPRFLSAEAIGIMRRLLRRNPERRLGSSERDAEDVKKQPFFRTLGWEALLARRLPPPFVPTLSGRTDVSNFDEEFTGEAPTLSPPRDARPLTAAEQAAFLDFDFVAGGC
For assay [5], the target named is Serine/threonine-protein kinase PAK 4 (Homo sapiens) (UniProt O96013). Nature of the assay: Inhibition of PAK4 (unknown origin) at 10 uM after 120 mins P33 radiolabeled kinase activity assay.
Serine/threonine-protein kinase PAK 4 (Homo sapiens), sequence (O96013 whole entry, looked up): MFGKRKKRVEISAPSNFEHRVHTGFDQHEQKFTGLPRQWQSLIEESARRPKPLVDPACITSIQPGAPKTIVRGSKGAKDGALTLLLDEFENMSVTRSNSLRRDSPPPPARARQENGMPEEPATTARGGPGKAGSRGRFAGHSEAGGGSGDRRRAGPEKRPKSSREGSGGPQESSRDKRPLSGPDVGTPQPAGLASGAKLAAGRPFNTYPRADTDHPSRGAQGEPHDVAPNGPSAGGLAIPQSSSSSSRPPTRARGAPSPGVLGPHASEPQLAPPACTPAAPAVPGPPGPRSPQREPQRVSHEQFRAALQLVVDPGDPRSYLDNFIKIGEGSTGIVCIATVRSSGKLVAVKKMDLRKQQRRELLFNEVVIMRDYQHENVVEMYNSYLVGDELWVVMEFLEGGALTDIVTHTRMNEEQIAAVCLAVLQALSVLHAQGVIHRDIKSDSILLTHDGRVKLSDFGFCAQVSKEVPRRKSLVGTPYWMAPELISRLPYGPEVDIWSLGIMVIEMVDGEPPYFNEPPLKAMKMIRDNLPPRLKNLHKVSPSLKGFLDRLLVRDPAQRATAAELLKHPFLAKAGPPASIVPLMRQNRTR
The target in assay [6] is T2, Cytoplasmic tyrosine-protein kinase BMX (Homo sapiens) (UniProt P51813).
T2 sequence (whole entry): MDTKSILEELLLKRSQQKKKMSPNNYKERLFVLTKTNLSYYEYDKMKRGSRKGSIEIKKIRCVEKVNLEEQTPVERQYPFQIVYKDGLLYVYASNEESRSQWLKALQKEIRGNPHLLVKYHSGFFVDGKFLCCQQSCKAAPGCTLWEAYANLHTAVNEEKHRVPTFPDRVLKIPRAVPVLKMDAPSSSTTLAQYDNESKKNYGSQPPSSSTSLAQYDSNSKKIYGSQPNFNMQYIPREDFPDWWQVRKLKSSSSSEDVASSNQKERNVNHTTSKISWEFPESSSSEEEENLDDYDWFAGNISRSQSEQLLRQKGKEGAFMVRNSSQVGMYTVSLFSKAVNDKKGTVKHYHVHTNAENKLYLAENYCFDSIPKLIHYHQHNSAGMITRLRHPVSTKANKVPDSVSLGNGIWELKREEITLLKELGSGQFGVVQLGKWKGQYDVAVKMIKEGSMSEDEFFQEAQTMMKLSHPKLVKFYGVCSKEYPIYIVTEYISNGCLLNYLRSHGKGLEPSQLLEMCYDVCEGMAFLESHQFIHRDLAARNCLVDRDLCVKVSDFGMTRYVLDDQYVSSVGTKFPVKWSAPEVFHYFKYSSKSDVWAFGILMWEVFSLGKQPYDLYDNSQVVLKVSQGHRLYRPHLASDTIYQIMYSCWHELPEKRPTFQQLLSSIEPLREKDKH
Nature of the assay: Inhibition of BMX (unknown origin) at 10 uM after 120 mins P33 radiolabeled kinase activity assay.

The target in assay [7] is CDK9/cyclin T1 (Homo sapiens) (UniProt O60563+P50750). Nature of the assay: Inhibition of CDK9/cyclin T1 (unknown origin) at 10 uM after 120 mins P33 radiolabeled kinase activity assay. It is filed as protein-complex assay.
The species entered for another assay is Homo sapiens. Nature of the assay: Inhibition of PKG2 (unknown origin) at 10 uM after 120 mins P33 radiolabeled kinase activity assay.
Assay [8] concerns the target Tyrosine-protein kinase Yes (Homo sapiens) (UniProt P07947). Nature of the assay: Inhibition of YES (unknown origin) at 10 uM after 120 mins P33 radiolabeled kinase activity assay.
For assay [9], the target named is T3, Serine/threonine-protein kinase Nek3 (Homo sapiens) (UniProt P51956).
T3 sequence (whole entry): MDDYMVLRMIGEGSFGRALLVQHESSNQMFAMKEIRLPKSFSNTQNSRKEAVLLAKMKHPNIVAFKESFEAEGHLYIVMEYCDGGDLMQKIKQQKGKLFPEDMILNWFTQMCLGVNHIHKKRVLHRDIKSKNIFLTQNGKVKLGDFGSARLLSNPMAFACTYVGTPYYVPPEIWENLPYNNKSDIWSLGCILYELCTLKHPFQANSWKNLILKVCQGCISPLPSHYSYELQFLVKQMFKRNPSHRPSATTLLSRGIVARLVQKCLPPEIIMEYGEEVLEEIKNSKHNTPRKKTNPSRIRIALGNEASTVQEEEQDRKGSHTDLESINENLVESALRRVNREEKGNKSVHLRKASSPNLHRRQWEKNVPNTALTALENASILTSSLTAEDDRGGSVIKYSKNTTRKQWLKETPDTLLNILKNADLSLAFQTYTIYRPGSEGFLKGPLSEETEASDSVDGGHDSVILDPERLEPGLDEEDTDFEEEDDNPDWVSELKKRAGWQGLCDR
Nature of the assay: Inhibition of NEK3 (unknown origin) at 10 uM after 120 mins P33 radiolabeled kinase activity assay.

In assay [10] the target is Serine/threonine-protein kinase 38 (Homo sapiens) (UniProt Q15208). Nature of the assay: Inhibition of STK38 (unknown origin) at 10 uM after 120 mins P33 radiolabeled kinase activity assay.
Serine/threonine-protein kinase 38 (Homo sapiens), sequence (Q15208 2-465 limits assumed): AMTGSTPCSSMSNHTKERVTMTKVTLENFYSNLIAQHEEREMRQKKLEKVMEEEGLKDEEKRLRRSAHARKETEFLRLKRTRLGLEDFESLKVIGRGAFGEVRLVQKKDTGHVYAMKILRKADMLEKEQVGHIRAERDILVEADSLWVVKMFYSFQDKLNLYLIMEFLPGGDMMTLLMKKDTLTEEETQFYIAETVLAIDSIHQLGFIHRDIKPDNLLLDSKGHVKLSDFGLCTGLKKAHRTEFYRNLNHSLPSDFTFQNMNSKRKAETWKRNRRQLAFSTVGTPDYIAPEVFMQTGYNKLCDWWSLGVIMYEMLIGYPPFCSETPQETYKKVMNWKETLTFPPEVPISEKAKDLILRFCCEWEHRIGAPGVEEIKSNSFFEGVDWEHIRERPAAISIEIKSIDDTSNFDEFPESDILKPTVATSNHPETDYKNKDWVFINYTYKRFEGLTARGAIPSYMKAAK
The target in assay [11] is Serine/threonine-protein kinase Chk2 (Homo sapiens) (UniProt O96017). Nature of the assay: Inhibition of CHK2 (unknown origin) at 10 uM after 120 mins P33 radiolabeled kinase activity assay.
Serine/threonine-protein kinase Chk2 (Homo sapiens), sequence (O96017 whole entry): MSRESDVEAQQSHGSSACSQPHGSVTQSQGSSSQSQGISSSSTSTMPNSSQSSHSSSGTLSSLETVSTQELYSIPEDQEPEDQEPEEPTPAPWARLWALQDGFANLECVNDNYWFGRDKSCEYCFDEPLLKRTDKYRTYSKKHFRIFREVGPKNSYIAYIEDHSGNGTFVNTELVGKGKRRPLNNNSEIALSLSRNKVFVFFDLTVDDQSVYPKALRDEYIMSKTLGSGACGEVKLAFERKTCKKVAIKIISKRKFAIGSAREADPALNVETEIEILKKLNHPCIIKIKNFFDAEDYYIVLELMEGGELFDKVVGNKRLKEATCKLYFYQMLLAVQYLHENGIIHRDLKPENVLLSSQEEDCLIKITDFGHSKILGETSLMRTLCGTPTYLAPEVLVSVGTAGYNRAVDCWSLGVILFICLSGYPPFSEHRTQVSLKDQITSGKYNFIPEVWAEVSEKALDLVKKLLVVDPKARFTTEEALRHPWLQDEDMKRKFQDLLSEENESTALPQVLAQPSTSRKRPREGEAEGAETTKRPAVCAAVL

Tyrosine-protein kinase Yes (Homo sapiens), sequence (P07947 2-543 limits assumed): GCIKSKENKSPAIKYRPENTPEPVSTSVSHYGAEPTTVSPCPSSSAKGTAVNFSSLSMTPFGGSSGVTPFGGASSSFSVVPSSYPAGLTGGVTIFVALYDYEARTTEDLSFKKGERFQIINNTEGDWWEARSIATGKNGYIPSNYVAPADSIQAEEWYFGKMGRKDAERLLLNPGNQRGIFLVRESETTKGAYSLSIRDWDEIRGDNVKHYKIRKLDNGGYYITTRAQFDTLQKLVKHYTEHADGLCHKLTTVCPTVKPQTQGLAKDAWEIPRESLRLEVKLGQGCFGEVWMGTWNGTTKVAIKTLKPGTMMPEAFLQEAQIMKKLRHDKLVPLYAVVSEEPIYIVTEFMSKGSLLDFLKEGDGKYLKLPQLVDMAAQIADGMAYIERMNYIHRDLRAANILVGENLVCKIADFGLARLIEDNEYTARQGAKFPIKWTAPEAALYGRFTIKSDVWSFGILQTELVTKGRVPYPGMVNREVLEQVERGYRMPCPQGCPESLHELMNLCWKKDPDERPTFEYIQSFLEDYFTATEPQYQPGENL

Broadly, the inhibition is the relative decrease from the control value, in per cent. `CS(=O)(=O)c1cccc(Nc2nccc(-c3sc(N4CCOCC4)nc3-c3cccc(NS(=O)(=O)c4c(F)cccc4F)c3)n2)c1`: the inhibition is 7.45% in assay [1]; 81.1% in assay [2]; 17.3% in assay [3]; 5.55% in assay [4]; 4.24% in assay [5]; 98% in assay [6]. Further, the inhibition in assay [7] came out at 25.4%; in the assay filed under Homo sapiens, 8.73%; in [8], 99.9%; in assay [9], 4.28%; in [10], 27.4%; in assay [11], 51.7%.

For `CC(C)(C)c1cc(NC(=O)Nc2ccc(Oc3ccncc3)cc2)no1`, the inhibition in assay [1] was found to be 97.4%; in assay [2], 8.52%; in assay [3] it was 69.2%; in assay [4], 25.1%; in [5] it was 5.19%; in assay [6], 15.5%. In addition, the inhibition in [7] came out at 78.7%; in the assay listed under Homo sapiens, 6.69%; in assay [8] it was 82%; in assay [9], 10.7%; in [10], 3.87%; in assay [11], 11.1%.

For `COCCNC(=O)c1ccc2c(c1)nc(-c1cnc(-c3ccc(Cl)cc3)[nH]1)n2CCOC`, the inhibition in assay [1] is -3.25%; in assay [2], -8.42%; in [3] it was 3.38%; in assay [4], 10.6%; in [5], 5.75%; in assay [6], 13.9%. Moreover, the inhibition in assay [7] was 5.79%; in the assay filed under Homo sapiens, -5.6%; in assay [8] it was 70.8%; in assay [9], 16.4%; in assay [10] it was 3.88%; in [11], -5.19%.
